Measured values taken from patent US20150212068A1, “Cholyl-L-Lysyl-Fluorescein Assay” (Novassay SA, priority 2012, published 2015).

What was measured:
[1] = Storage stability of CLF in human plasma at −70° C. over 4 weeks (Test 4), HPLC-MS/MS; type: in vitro ADME; settings: for CLF remaining / CLF concentration: (D) storage in plasma at −70° C. per title (section head prints 37° C.); for CLF remaining: vs To; for CLF concentration: 100 ng/ml, mean ± SEM (n = 2)
Method: A working solution of CLF was prepared at 10 μg/ml by diluting the compound in methanol (100%).
At To and 4 weeks, 72 hours and 24 hours before To, 4 μl of the working solution of CLF were added to 400 μl of human plasma. The final concentration of CLF was of 100 ng/ml. Samples were divided in 2 equal fractions of 200 μl and stored at −70° C. until further analysis.
An internal standard (IS), 5-([4,6-Dichlorotriazin-2-yl]amino)fluorescein hydrochloride, was added to each plasma sample (calibrators, QC, zero and test samples) in order to monitor the extraction. Thus, a stock solution of IS at 100 μg/ml in acetonitrile was 50-fold diluted in acetonitrile in order to obtain a final concentration of 2 μg/ml. Then, 200 μl of this solution were added to each plasma sample in order to precipitate the proteins. Samples were vortexed/mixed and centrifuged 5 min at 20,000 g (4° C.). After centrifugation, the clear supernatant (around 250 μl) was transferred into 1.2 ml HPLC glass vials and sealed. Samples were placed into the refrigerated autosampler and 20 μl were injected into the HPLC-MS/MS system. Test samples were injected twice.
HPLC separation was operated with a mixture of water and acetonitrile containing 0.1% of formic acid and the reversed phase mode was selected. The injected volume of sample was 20 μl and the “full loop” mode was applied. The temperature of the analytical column was kept at 30° C.
CLF and its IS were separated on an Acclaim 120 C18 column (5 μm, 2.1×100 mm, Dionex) by elution with a linear gradient of acetonitrile in water as described in Table 6.
An ion trap mass spectrometer equipped with an ESI interface was operated in the positive ionization mode. For each compound, the most abundant ion formed in MS was selected for MS/MS fragmentations. In order to increase the sensitivity and the specificity of the method, the MRM mode was selected. The most specific daughter ions formed in MS/MS were used for quantification.

[2] = Stability of CLF-spiked serum pools stored 48 hrs at −20° C., 4° C. and 37° C., CLF ELISA; type: in vitro ADME, human; settings: for % difference (4° C. from −20° C.) / % difference (37° C. from −20° C.) / observed 4° C. / observed 37° C. / observed −20° C.: serum pool; for observed 4° C.: 48 hrs at 4° C.; for observed 37° C.: 48 hrs at 37° C.; for observed −20° C.: 48 hrs at −20° C.
Method: (§1) These conditions were used for all assays described in Phase 2a (above) and Phase 2b (below). See Appendix B and C for buffer and conjugate formulations respectively: • Add 25 μl/well of sample or standard (0-1000 ng/ml CLF in Buffer #24) to the wells of a streptavidin-coated microtitre plate (NovAssay, F2SAC). • Add 100 μl/well of fluorescein-biotin (Sigma B9431) at 20 ng/ml in Buffer #24+0.2% w/v ANS (Sigma 10417). • Add 100 μl/well of anti-fluorescein HRP (NovAssay, DV047/17-3) at 100 ng/ml in Buffer #24. • Incubate the plate for 30 minutes at room temperature. • Wash the plate 3 times with 800 μl/well Buffer #29 and tap the plate dry. • Add 100 μl/well of SureBlue Reserve TMB Substrate (KPL) and incubate the plate for 10 minutes at room temperature. • Stop the substrate reaction by adding 100 μl/well of 1M HCl and read the absorbance at 450 nm wavelength (ThermoFisher Scientific, Multiskan FC).
The stability study (−20° C., 4° C. and 37° C.) involved preparation of 3 serum pools spiked with 31.25 ng/ml, 125 ng/ml and 250 ng/ml CLF (aliquots of which were then stored at the 3 temperatures). Storage time was 48 hrs.

[3] = Stability of buffer-based CLF standards after 4 weeks storage at 2-8° C., CLF ELISA; type: physicochemical; settings: for mean OD, fresh: freshly made; for decrease in immunoreactivity: buffer-based CLF standards
Method: as §1
Standards were prepared by spiking CLF into buffer (6 standards having a concentration span of 0 to 1000 ng/ml). The standards were stored at 2-8° C. for 4 weeks. They were then taken out of the fridge and assayed alongside standards that were freshly made.

[4] = Fresh std 16 ng/ml, 4 weeks at 2-8° C.
[5] = Fresh std 31 ng/ml, 4 weeks at 2-8° C.
[6] = Fresh std 63 ng/ml, 4 weeks at 2-8° C.
[7] = Fresh std 125 ng/ml, 4 weeks at 2-8° C.
[8] = Fresh std 250 ng/ml, 4 weeks at 2-8° C.
[9] = Fresh std 500 ng/ml, 4 weeks at 2-8° C.
[10] = Fresh std 1000 ng/ml, 4 weeks at 2-8° C.

## CC(CCC(=O)NC(CCCCNC(=S)Nc1ccc(-c2c3ccc(=O)cc-3oc3cc(O)ccc23)c(C(=O)O)c1)C(=O)O)C1CCC2C3C(O)CC4CC(O)CCC4(C)C3CC(O)C12C [CLF, Cholyl-L-Lysyl-Fluorescein]
[1]; 0.0 days
  CLF remaining: 100.0%
  CLF concentration: 101.2 ± 5.8 ng/mL
[1]; 1.0 days
  CLF concentration: 105.5 ± 2.5 ng/mL
  CLF remaining: 104.3%
[1]; 3.0 days
  CLF concentration: 104.7 ± 6.9 ng/mL
  CLF remaining: 103.5%
[1]; 28.0 days
  CLF concentration: 96.2 ± 1.4 ng/mL
[1]; 28.0 days (4 weeks)
  CLF remaining: 95.0%
[1]; plasma spiked with 100 ng/ml, stored at −70° C., 0-4 weeks
  plasmatic concentrations measured: 96.2 to 105.5 ng/mL
[1]; up to 4 weeks at −70° C.
  CLF stability in plasma on storage: stable
[1]; −70° C.
  time over which CLF stability in human plasma was confirmed: at least 4 weeks
[2]; at 4 C., should avoid higher temperatures e.g. 37 C.
  time spiked samples can be stored: 48 hrs at 4 C. but should avoid higher
[2]; expected 31.25 ng/ml, 48 hrs
  % difference (4° C. from −20° C.): −8%
  % difference (37° C. from −20° C.): −45%
[2]; expected 31.25 ng/ml
  observed 4° C.: 34 ng/mL
  observed 37° C.: 20 ng/mL
  observed −20° C.: 37 ng/mL
[2]; expected 125 ng/ml, 48 hrs
  % difference (4° C. from −20° C.): −2%
  % difference (37° C. from −20° C.): −20%
[2]; expected 125 ng/ml
  observed 4° C.: 107 ng/mL
  observed 37° C.: 88 ng/mL
  observed −20° C.: 110 ng/mL
[2]; expected 250 ng/ml, 48 hrs
  % difference (4° C. from −20° C.): −12%
[2]; expected 250 ng/ml
  observed 4° C.: 211 ng/mL
  observed 37° C.: >off scale
  observed −20° C.: 240 ng/mL
[2]; serum pools spiked with CLF, 48 hrs, 4° C. vs 37° C. (reference −20° C.)
  storage stability of spiked samples: can be stored for 48 hrs at 4 °C but should avoid higher temperatures
[3]; [4]
  4-week stds: 5 ng/mL
  % change in CLF immunoreactivity: −67%
[3]; [5]
  4-week stds: 17 ng/mL
  % change in CLF immunoreactivity: −44%
[3]; [6]
  4-week stds: 38 ng/mL
  % change in CLF immunoreactivity: −40%
[3]; [7]
  4-week stds: 72 ng/mL
  % change in CLF immunoreactivity: −42%
[3]; [8]
  4-week stds: 162 ng/mL
  % change in CLF immunoreactivity: −35%
[3]; [9]
  4-week stds: 359 ng/mL
  % change in CLF immunoreactivity: −28%
[3]; [10]
  4-week stds: 685 ng/mL
  % change in CLF immunoreactivity: −31%
[3]; buffer standard 16 ng/ml, 4 weeks at 2-8° C.
  mean OD, 4-week old stds: 3.219
[3]; buffer standard 16 ng/ml
  mean OD, fresh: 2.745
[3]; buffer standard 31 ng/ml, 4 weeks at 2-8° C.
  mean OD, 4-week old stds: 2.699
[3]; buffer standard 31 ng/ml
  mean OD, fresh: 2.265
[3]; buffer standard 63 ng/ml, 4 weeks at 2-8° C.
  mean OD, 4-week old stds: 2.133
[3]; buffer standard 63 ng/ml
  mean OD, fresh: 1.653
[3]; buffer standard 125 ng/ml, 4 weeks at 2-8° C.
  mean OD, 4-week old stds: 1.577
[3]; buffer standard 125 ng/ml
  mean OD, fresh: 0.884
[3]; buffer standard 250 ng/ml, 4 weeks at 2-8° C.
  mean OD, 4-week old stds: 0.953
[3]; buffer standard 250 ng/ml
  mean OD, fresh: 0.661
[3]; buffer standard 500 ng/ml, 4 weeks at 2-8° C.
  mean OD, 4-week old stds: 0.528
[3]; buffer standard 500 ng/ml
  mean OD, fresh: 0.419
[3]; buffer standard 1000 ng/ml, 4 weeks at 2-8° C.
  mean OD, 4-week old stds: 0.317
[3]; buffer standard 1000 ng/ml
  mean OD, fresh: 0.235
[3]; 4 weeks at 2-8 C.
  decrease in immunoreactivity: resulted in a 30-40% decrease in
[3]; 4 weeks at 2-8° C., vs fresh standards
  decrease in immunoreactivity: 30-40%
